Here are results for one compound from patent US8097585B2, “Methods of treating inflammation by administration of heme oxygenase-1 and products of heme degradation” (priority 2002, dated 2012).

Structures can show the parent of a compound that is named as a salt.

For test [1], the system named is transplanted islets in diabetic mice. Description: Syngeneic islet transplantation, minimal mass model. The test is classed as in vivo, DBA/2 mouse. The settings on record: 50 μmol/kg twice daily day-1 until day 7; 140 islets; control hyperglycemic >52 days. On the procedure: The ability of exogenously administered biliverdin to protect transplanted islet was evaluated in the minimal mass model. Syngeneic islet transplantation was carried out in the DBA/2 mouse. Islets (140) were transplanted under the kidney capsule of diabetic mice. Test animals were treated with 50 μmol/kg biliverdin twice daily from day-1 until day 7. The controls were treated with vehicle only. Biliverdin treated animals returned to normoglycemia in 7.7±5.5 days; animals in control group remain hyperglycemic (>52 days).

Test [2] has as its system MPO positive cells in intestinal muscularis. Description: Leukocyte recruitment into intestinal muscularis (MPO histochemistry). The format is in vivo, LEW rats. As for the experimental part: Small Intestinal Transplantation. Orthotopic small intestinal transplantation (SITx) was performed in syngeneic Lewis rats. SITx with caval drainage was performed using a previously described procedure (Murase et al., in Handbook of Animal Models in Transplantation Research, Cramer et al., Eds. CRC Press, Boca Raton, Fla., pp. 203-213 (1994)). […] The graft was perfused via the aortic segment with 5 ml chilled Ringer's lactate solution, and the intestinal lumen was irrigated with 20 ml of cold saline solution containing 0.5% neomycin-sulfate (Sigma, St. Louis, Mo.). End-to-side anastomoses between the graft aorta and the recipient infrarenal aorta, and between the graft portal vein and recipient vena cava, were performed with 10-0 Novafil™ suture. The cold ischemic time was 1 hour. The entire recipient intestine was removed and the enteric continuity was restored by proximal and distal end-to-end intestinal anastomoses. Recipient animals were given 20 mg/day prophylactic cefamandole nafate for 3 postoperative days. Transplanted recipients were given water 3 hours after surgery, and were fed 24 hours after surgery.
Leukocyte Recruitment. […] Myeloperoxidase (MPO) activity, as determined by Hanker-Yates histochemistry, was used to quantify the polymorphonuclear neutrophil (PMN) infiltrate in tissues from control and transplanted animals, with and without BV treatment. […]

In test [3] the test system is NF-κB. Description: EMSA of nuclear extracts, NF-κB DNA binding. The format is cell-based. The settings on record: Jurkat T cells, PMA plus ionomycin, 100 μM biliverdin. On the procedure:
Nuclear protein extraction and electrophoretic mobility shift assay (EMSA). Jurkat T cells were cultured in 10% FCS supplemented RPMI 1640 with 50 nM phorbol myristyl acetate (PMA) and 2 μM ionomycin (both reagents from ICN Biomedicals) in the presence or absence of 100 μM biliverdin. Following 0, 2, and 4 hrs of stimulation, cells (30×10^6 cells for each group at each time points) were collected, washed twice with PBS, and pelleted. Nuclear and cytoplasmic extracts were prepared according to a modified Shapiro's method (Shapiro et al., DNA 7(1):47-55, 1988). Protein concentrations were determined by the Bradford assay. The following oligonucleotides (Invitrogen, Calsbad, Calif.) were used for EMSA:
NF-κB, (coding) 5′-[…]-3′ (SEQ ID NO:7),
(non-coding) 5′-[…]-[…]-3′ (SEQ ID NO:8).
Oligonucleotides were radioactively labeled with [^32P] ATP. The EMSA reactions were assembled as previously described (Usheva et al., Proc. Natl. Acad. Sci. USA 93(24):13571-6, 1996). Digital images from the EMSA radiographs were obtained using an image scanner.
In general terms: In EMSA bound probe runs differently from free probe, usually more slowly.

In test [4] the test system is neointimal formation in carotid arteries. Description: Carotid balloon injury model, neointimal formation. Conditions: 14 days. The test is classed as in vivo, Lewis Rats. From the text:
Animals. Adult male Lewis Rats (LEW/CrlBR; Charles River Laboratories, Wilmington, Mass.) weighing 350-400 g were used in the balloon injury model. Animals were housed in accordance with the guidelines from the American Association for Laboratory Animal Care and research protocols were approved by the institutional animal care and use committee of the Beth Israel Deaconess Medical Center, Boston, Mass.
Balloon Injury model. After the exposure of the left common carotid and the left external carotid arteries, a 2F Fogarty catheter (Edwards Lifesciences LLC, Irvine, Calif.) was introduced via the external carotid artery and was advanced into the left common carotid artery, inflated to 2 atmospheres of pressure and pulled back to the point of bifurcation, then deflated. This procedure was repeated three times.
Experimental reagents and design. […]
Histomorphometric analysis. […] Images were analyzed by manual segmentation, tracing intima and media in each section. Areas and diameters were calculated by digital imaging software (AxioVision™, Carl Zeiss, Jena, Germany) as number of pixels corresponding to those areas and diameters. […] 24 sections from each group were statistically analyzed with StatView® software version 5.0 using ANOVA.

Take `C=CC1=C(C)/C(=C/C2=NC(=C\c3[nH]c(/C=C4\NC(=O)C(C)=C4C=C)c(C)c3CCC(=O)O)/C(CCC(=O)O)=C2C)NC1=O` [biliverdin, biliverdin dihydrochloride]: the “time to return to normoglycemia” value in test [1] is 7.7 ± 5.5 days. Further, in test [2] (24 hours after SITx), the “mean number of MPO positive cells” value is “significantly decreased”. In test [2] (BV injection into normal animals), this compound showed an MPO positive cells of 3.9±1.3 cells per ×200 field. Moreover, the “DNA binding of NF-κB” value in test [3] is on record as “inhibited DNA binding”. Moreover, the “neointimal formation after balloon injury” value in test [4] (local pre-treatment, instilled into common carotid artery for one hour) is listed as “significantly inhibits neointimal formation”; in test [4] (systemic treatment, 50 μmol/kg i.p. at two time points), “significantly inhibits neointimal formation”.
